Converted amounts (≈) assume the structure as drawn. Like-named read-outs stand apart in the source and are kept apart here.
Assays:
Experiment in all cases: In vitro antibacterial MIC/MBC test
Format in all cases: cell-based
[1] = test system: S. aureus Glorgio; conditions: Staphylococcus aureus
Method: (§1) Win 52,522 and Win 35,439 were solubilized in 0.1 ml of 0.5 N NaOH/mg of compound and diluted in sterile distilled water to 160 mcg/ml. Vancomycin and methicillin were solubilized in sterile distilled water to 1250 mcg/ml of base compound. The stock solutions were sterilized by filtration through membrane filters with a 0.45 μm pore size.
(§2) The bacterial cultures listed in Table I (hereinbelow) were grown overnight at 37° C. in MHB for all cultures except the Streptococcus strains. These were grown in BHI+10% NHS. The overnight broth cultures were adjusted to an optical density of 0.10 (650 nm, B L Spectronic 20) in sterile distilled water and subsequently diluted to 6.7×10^6 cells/ml in MHB or BHI+1% NHS.
(§3) Serial two-fold dilutions of the compound solutions were prepared in MHB (or in BHI+1% NHS for tests with Streptococci) and dispensed into 96-well microtiter trays in a volume of 0.1 ml/well using a Sandy Springs (Bellco Glass Co.) dispenser. The trays were then inoculated with 0.0015 ml of a suspension containing 6.7×10^6 cells/ml of the appropriate inoculum using a MIC-2000 inoculator (Dynatech Corp.) resulting in a final inoculum of approximately 1×10^4 cells/well or 1×10^5 cells/ml. The trays were incubated at 37° C. for 18-20 hours and the minimal inhibitory concentration (MIC), defined as the lowest concentration of compound to inhibit visible bacterial growth, was recorded.
(§4) After the MIC values were recorded, the contents in the microtiter trays were thoroughly mixed on a Bellco Mini-orbital Shaker (Bellco Glass Co.) for 3 min. at a setting of 8. A portion (0.0015 ml) from each well was then transferred via an MIC-2000 inoculator to plates containing MHA or BHI agar+10% NHS. The plates were incubated at 37° C. for 18-20 hrs. The minimal bactericidal concentration (MBC), defined as the lowest concentration of compound that prevented the formation of a recognizable colony on the agar surface, was recorded.

[2] = test system: S. aureus S-234; conditions: Staphylococcus aureus, S234
Method: as §1, §2, §3, §4

[3] = test system: S. pneumoniae Type I; conditions: Streptococcus pneumoniae
Method: as §1, §2, §3, §4

[4] = test system: S. epidermidis 1-3-H; conditions: Staphylococcus epidermidis, 13H
Method: as §1, §2, §3, §4

[5] = test system: S. pyogenes (89); conditions: Streptococcus pyogenes
Method: as §1, §2, §3, §4

[6] = test system: S. aureus 4-81; conditions: Staphylococcus aureus, 481
Method: as §1, §2, §3, §4

[7] = test system: S. pyogenes C203; conditions: Streptococcus pyogenes
Method: as §1, §2, §3, §4

[8] = test system: S. aureus 39881; conditions: Staphylococcus aureus
Method: as §1, §2, §3, §4

[9] = test system: S. pyogenes 7948-15; conditions: Streptococcus pyogenes, 794815
Method: as §1, §2, §3, §4

[10] = test system: S. aureus 24-81; conditions: Staphylococcus aureus, 2481
Method: as §1, §2, §3, §4

[11] = test system: S. enterococcus 0-2-13; conditions: 0213
Method: as §1, §2, §3, §4

[12] = test system: S. aureus 21-81A; conditions: Staphylococcus aureus, 2181A
Method: as §1, §2, §3, §4

[13] = test system: S. pneumoniae Type III; conditions: Streptococcus pneumoniae
Method: as §1, §2, §3, §4

[14] = test system: S. faecalis (11700); conditions: Enterococcus faecalis, ATCC11700
Method: as §1, §2, §3, §4

[15] = test system: S. aureus (25923); conditions: Staphylococcus aureus, ATCC25923
Method: as §1, §2, §3, §4

[16] = test system: S. aureus 34-81; conditions: Staphylococcus aureus, 3481
Method: as §1, §2, §3, §4

[17] = test system: S. epidermidis 1-5-H; conditions: Staphylococcus epidermidis, 15H
Method: as §1, §2, §3, §4

[18] = test system: S. faecalis (8043); conditions: Enterococcus faecalis, ATCC8043
Method: as §1, §2, §3, §4

[19] = test system: S. epidermidis (17917); conditions: Staphylococcus epidermidis, ATCC17917
Method: as §1, §2, §3, §4

[20] = test system: S. aureus 59-81; conditions: Staphylococcus aureus, 5981
Method: as §1, §2, §3, §4

[21] = test system: S. aureus 41-81; conditions: Staphylococcus aureus, 4181
Method: as §1, §2, §3, §4

Structure (SMILES): CN[C@H](CC(C)C)C(=O)N[C@H]1C(=O)N[C@@H](CC(N)=O)C(=O)N[C@H]2C(=O)N[C@H]3C(=O)N[C@H](C(=O)N[C@H](C(=O)O)c4cc(O)cc(O)c4-c4cc3ccc4O)[C@H](O)c3ccc(c(Cl)c3)Oc3cc2cc(c3O[C@@H]2O[C@H](CO)[C@@H](O)[C@H](O)[C@H]2O[C@H]2C[C@](C)(N)[C@H](O)[C@H](C)O2)Oc2ccc(cc2Cl)[C@H]1O [Vancomycin]
- MBC [1]: 1 µg/mL (≈ 0.69 µM)
- MIC [1]: 1 µg/mL (≈ 0.69 µM)
- MBC [2]: 1 µg/mL (≈ 0.69 µM)
- MIC [2]: 1 µg/mL (≈ 0.69 µM)
- MBC [3]: 16 µg/mL (≈ 11 µM)
- MIC [3]: 16 µg/mL (≈ 11 µM)
- MBC [4]: 1 µg/mL (≈ 0.69 µM)
- MIC [4]: 1 µg/mL (≈ 0.69 µM)
- MBC [5]: 16 µg/mL (≈ 11 µM)
- MIC [5]: 16 µg/mL (≈ 11 µM)
- MBC [6]: 0.5 µg/mL (≈ 0.345 µM)
- MIC [6]: 0.5 µg/mL (≈ 0.345 µM)
- MBC ([7]; C203): 16 µg/mL (≈ 11 µM)
- MIC ([7]; C203): 16 µg/mL (≈ 11 µM)
- MBC [8]; 39881: 1 µg/mL (≈ 0.69 µM)
- MIC [8]; 39881: 1 µg/mL (≈ 0.69 µM)
- MBC [9]: 16 µg/mL (≈ 11 µM)
- MIC [9]: 16 µg/mL (≈ 11 µM)
- MBC [10]: 0.5 µg/mL (≈ 0.345 µM)
- MIC [10]: 0.5 µg/mL (≈ 0.345 µM)
- MBC ([11]; Enterococcus): 16 µg/mL (≈ 11 µM)
- MIC ([11]; Enterococcus): 0.25 µg/mL (≈ 0.173 µM)
- MBC [12]: 1 µg/mL (≈ 0.69 µM)
- MIC [12]: 0.5 µg/mL (≈ 0.345 µM)
- MBC [13]: 16 µg/mL (≈ 11 µM)
- MIC [13]: ≤ 0.06 µg/mL
- MBC [14]: > 125 µg/mL
- MIC [14]: 1 µg/mL (≈ 0.69 µM)
- MBC [15]: 1 µg/mL (≈ 0.69 µM)
- MIC [15]: 1 µg/mL (≈ 0.69 µM)
- MBC [16]: 0.5 µg/mL (≈ 0.345 µM)
- MIC [16]: 0.5 µg/mL (≈ 0.345 µM)
- MBC [17]: 2 µg/mL (≈ 1.38 µM)
- MIC [17]: 2 µg/mL (≈ 1.38 µM)
- MBC [18]: > 125 µg/mL
- MIC [18]: 1 µg/mL (≈ 0.69 µM)
- MBC [19]: 1 µg/mL (≈ 0.69 µM)
- MIC [19]: 1 µg/mL (≈ 0.69 µM)
- MBC [20]: 1 µg/mL (≈ 0.69 µM)
- MIC [20]: 1 µg/mL (≈ 0.69 µM)
- MBC [21]: 1 µg/mL (≈ 0.69 µM)
- MIC [21]: 1 µg/mL (≈ 0.69 µM)

Structure (SMILES): CCn1cc(C(=O)O)c(=O)c2ccc(-c3cc(C)nc(C)c3)cc21 [Win 35,439, 1-ethyl-1,4-dihydro-7-(2,6-dimethyl-4-pyridinyl)-4-oxo-3-quinolinecarboxylic acid]
- MBC ([1]; S. aureus Glorgio, read-out: MBC): 0.125 µg/mL (≈ 0.388 µM)
- MIC ([1]; S. aureus Glorgio, read-out: MIC): 0.03 µg/mL (≈ 0.0931 µM)
- MBC ([2]; S. aureus S-234, read-out: MBC): 0.125 µg/mL (≈ 0.388 µM)
- MIC ([2]; S. aureus S-234, read-out: MIC): 0.06 µg/mL (≈ 0.186 µM)
- MBC ([3]; S. pneumoniae Type I, read-out: MBC): 2 µg/mL (≈ 6.2 µM)
- MIC ([3]; S. pneumoniae Type I, read-out: MIC): 2 µg/mL (≈ 6.2 µM)
- MBC ([4]; S. epidermidis 1-3-H, read-out: MBC): 0.25 µg/mL (≈ 0.776 µM)
- MIC ([4]; S. epidermidis 1-3-H, read-out: MIC): 0.25 µg/mL (≈ 0.776 µM)
- MBC ([5]; S. pyogenes SWRI No. 89, read-out: MBC): > 16 µg/mL
- MIC ([5]; S. pyogenes SWRI No. 89, read-out: MIC): 4 µg/mL (≈ 12.4 µM)
- MBC ([6]; S. aureus 4-81, read-out: MBC): 0.125 µg/mL (≈ 0.388 µM)
- MIC ([6]; S. aureus 4-81, read-out: MIC): 0.06 µg/mL (≈ 0.186 µM)
- MBC ([7]; S. pyogenes C203, read-out: MBC): > 16 µg/mL
- MIC ([7]; S. pyogenes C203, read-out: MIC): 4 µg/mL (≈ 12.4 µM)
- MBC ([8]; S. aureus 39881, read-out: MBC): 0.06 µg/mL (≈ 0.186 µM)
- MIC ([8]; S. aureus 39881, read-out: MIC): 0.06 µg/mL (≈ 0.186 µM)
- MBC ([9]; S. pyogenes 7948-15, read-out: MBC): > 16 µg/mL
- MIC ([9]; S. pyogenes 7948-15, read-out: MIC): 4 µg/mL (≈ 12.4 µM)
- MBC ([10]; S. aureus 24-81, read-out: MBC): 0.125 µg/mL (≈ 0.388 µM)
- MIC ([10]; S. aureus 24-81, read-out: MIC): 0.06 µg/mL (≈ 0.186 µM)
- MBC ([11]; S. enterococcus 0-2-13, read-out: MBC): 2 µg/mL (≈ 6.2 µM)
- MIC ([11]; S. enterococcus 0-2-13, read-out: MIC): 2 µg/mL (≈ 6.2 µM)
- MBC ([12]; S. aureus 21-81A, read-out: MBC): 0.125 µg/mL (≈ 0.388 µM)
- MIC ([12]; S. aureus 21-81A, read-out: MIC): 0.06 µg/mL (≈ 0.186 µM)
- MBC ([13]; S. pneumoniae Type III, read-out: MBC): 4 µg/mL (≈ 12.4 µM)
- MIC ([13]; S. pneumoniae Type III, read-out: MIC): 4 µg/mL (≈ 12.4 µM)
- MBC ([14]; S. faecalis ATCC No. 11700, read-out: MBC): 1 µg/mL (≈ 3.1 µM)
- MIC ([14]; S. faecalis ATCC No. 11700, read-out: MIC): 1 µg/mL (≈ 3.1 µM)
- MBC ([15]; S. aureus ATCC No. 25923, read-out: MBC): 0.125 µg/mL (≈ 0.388 µM)
- MIC ([15]; S. aureus ATCC No. 25923, read-out: MIC): 0.125 µg/mL (≈ 0.388 µM)
- MBC ([16]; S. aureus 34-81, read-out: MBC): 0.06 µg/mL (≈ 0.186 µM)
- MIC ([16]; S. aureus 34-81, read-out: MIC): 0.06 µg/mL (≈ 0.186 µM)
- MBC ([17]; S. epidermidis 1-5-H, read-out: MBC): 0.25 µg/mL (≈ 0.776 µM)
- MIC ([17]; S. epidermidis 1-5-H, read-out: MIC): 0.25 µg/mL (≈ 0.776 µM)
- MBC ([18]; S. faecalis ATCC No. 8043, read-out: MBC): 2 µg/mL (≈ 6.2 µM)
- MIC ([18]; S. faecalis ATCC No. 8043, read-out: MIC): 1 µg/mL (≈ 3.1 µM)
- MBC ([19]; S. epidermidis ATCC No. 17917, read-out: MBC): 0.5 µg/mL (≈ 1.55 µM)
- MIC ([19]; S. epidermidis ATCC No. 17917, read-out: MIC): 0.5 µg/mL (≈ 1.55 µM)
- MBC ([20]; S. aureus 59-81, read-out: MBC): 0.25 µg/mL (≈ 0.776 µM)
- MIC ([20]; S. aureus 59-81, read-out: MIC): 0.125 µg/mL (≈ 0.388 µM)
- MBC ([21]; S. aureus 41-81, read-out: MBC): 0.25 µg/mL (≈ 0.776 µM)
- MIC ([21]; S. aureus 41-81, read-out: MIC): 0.06 µg/mL (≈ 0.186 µM)

From US4698350A, “1-ethyl-6-fluoro-1,4-dihydro- 7-(2,6-dimethyl-4-pyridinyl)-4-oxo-3-quinolinecarboxylic acid and antibacterial use thereof” (Sterling Drug Inc., priority 1984, dated 1987)
